Reference: PubChem BioAssay AID743107 (Vanderbilt Specialized Chemistry Center, 2013)
Activity calls are given as the source filed them.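 How the source made its calls: active means compound leaving under 60% of the human M5 receptor calcium signal; inactive means the rest.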

Molecular target: Muscarinic acetylcholine receptor M5 (Homo sapiens) (UniProt P08912)
Assay: human M5 muscarinic receptor antagonists, cell-based, single concentration, CHO-K1 hM5, ACh EC80 (AID 743107)
Details: CHO-K1 hM5, calcium flux, at 10 µM, hits give low values

Chain of Muscarinic acetylcholine receptor M5 (Homo sapiens) (P08912 whole entry, looked up): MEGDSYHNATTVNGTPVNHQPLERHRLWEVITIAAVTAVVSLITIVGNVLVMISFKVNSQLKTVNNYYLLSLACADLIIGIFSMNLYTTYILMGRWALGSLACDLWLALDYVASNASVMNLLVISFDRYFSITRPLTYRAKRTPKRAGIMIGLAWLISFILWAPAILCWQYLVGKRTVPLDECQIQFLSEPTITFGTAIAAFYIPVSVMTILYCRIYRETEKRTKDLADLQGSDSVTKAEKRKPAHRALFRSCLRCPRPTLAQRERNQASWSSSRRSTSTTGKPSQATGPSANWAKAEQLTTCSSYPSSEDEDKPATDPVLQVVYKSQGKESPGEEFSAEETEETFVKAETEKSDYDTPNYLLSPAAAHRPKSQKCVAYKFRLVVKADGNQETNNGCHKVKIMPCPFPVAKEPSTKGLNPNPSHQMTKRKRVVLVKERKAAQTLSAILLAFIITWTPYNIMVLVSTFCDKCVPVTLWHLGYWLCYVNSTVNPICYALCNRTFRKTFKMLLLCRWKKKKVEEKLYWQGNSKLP

SMILES | activity remaining
CC(=O)c1cccc(OCc2cc(C(=O)N(C)Cc3ccccc3)no2)c1 | 76.6% (inactive)
CC(c1ccccn1)N(C)C(=O)c1cc(COc2ccccc2F)on1 (stereo not given) | 83.7% (inactive)
CC(c1ccccn1)N(C)C(=O)c1cc(COc2ccc(F)cc2)on1 (stereo not given) | 82.2% (inactive)
CC(c1ccccn1)N(C)C(=O)c1cc(COc2cccc(Br)c2)on1 (stereo not given) | 71.7% (inactive)
CC(=O)c1cccc(OCc2cc(C(=O)NC(c3ccccn3)C(F)(F)F)no2)c1 (stereo not given) | 72.6% (inactive)
CC(c1ccccn1)N(C)C(=O)c1cc(COc2cccc(Oc3ccccc3)c2)on1 (stereo not given) | 83.1% (inactive)
Cc1ccccc1C(=O)NCc1cc(C(=O)N(C)C(C)c2ccccn2)no1 (stereo not given) | 73.8% (inactive)
CC(O)c1cccc(OCc2cc(C(=O)N(C)C(C)c3ccccn3)no2)c1 (stereo not given) | 69.3% (inactive)
CC(=O)c1ccccc1OCc1cc(C(=O)N(C)C(C)c2ccccn2)no1 (stereo not given) | 80.4% (inactive)
CC(=O)c1cccc(N(Cc2cc(C(=O)N(C)C(C)c3ccccn3)no2)C(=O)c2ccc(F)cc2)c1 (stereo not given) | 71.8% (inactive)
CC(c1ccccn1)N(C)C(=O)c1cc(CNS(C)(=O)=O)on1 (stereo not given) | 80.4% (inactive)
CC(=O)c1cccc(N(Cc2cc(C(=O)N(C)C(C)c3ccccn3)no2)C(=O)c2ccccc2)c1 (stereo not given) | 69.6% (inactive)
COc1ccccc1C(=O)N(Cc1cc(C(=O)N(C)C(C)c2ccccn2)no1)c1cccc(C(C)=O)c1 (stereo not given) | 73.8% (inactive)
CC(c1ccccn1)N(C)C(=O)c1cc(COc2cccc(C=O)c2)on1 (stereo not given) | 83.1% (inactive)
CC(=O)c1cccc(N(Cc2cc(C(=O)N(C)C(C)c3ccccn3)no2)C(=O)c2ccccc2C)c1 (stereo not given) | 67.2% (inactive)
CC(c1ccccn1)N(C)C(=O)c1cc(COc2cccc([N+](=O)[O-])c2)on1 (stereo not given) | 73.7% (inactive)
CC(c1ccccn1)N(C)C(=O)c1cc(COc2ccc(Cl)cc2)on1 (stereo not given) | 84.2% (inactive)
CC(=O)c1cccc(OCc2cc(C(=O)Nc3ccccn3)no2)c1 | 77.1% (inactive)
CC(=O)c1cccc(OCc2cc(C(=O)N(C)C(C)c3cccnc3)no2)c1 (stereo not given) | 78.2% (inactive)
CC(=O)NCc1cc(C(=O)N(C)C(C)c2ccccn2)no1 (stereo not given) | 76.8% (inactive)
CC(c1ccccn1)N(C)C(=O)c1cc(COc2cccc(CO)c2)on1 (stereo not given) | 75.5% (inactive)
COC(=O)c1cccc(OCc2cc(C(=O)N(C)C(C)c3ccccn3)no2)c1 (stereo not given) | 67.3% (inactive)
Cc1ccccc1OCc1cc(C(=O)N(C)C(C)c2ccccn2)no1 (stereo not given) | 79.9% (inactive)
CC(=O)c1cccc(OCc2cc(C(=O)N(C)C(C)c3ccccc3)no2)c1 (stereo not given) | 52.9%
CC(c1ccccn1)N(C)C(=O)c1cc(COc2ccccc2Cl)on1 (stereo not given) | 77.2% (inactive)
CC(c1ccccn1)N(C)C(=O)c1cc(CNC(=O)c2ccccc2)on1 (stereo not given) | 76.7% (inactive)

Further lines, results first:

activity remaining | SMILES
73.9% (inactive) | CC(=O)c1cccc(N(Cc2cc(C(=O)N(C)C(C)c3ccccn3)no2)C(=O)C(C)(C)C)c1 (stereo not given)
77.8% (inactive) | CC(=O)c1cccc(OCc2cc(C(=O)N(C)c3ccccn3)no2)c1
66% (inactive) | CC(=O)c1cccc(N(Cc2cc(C(=O)N(C)C(C)c3ccccn3)no2)C(=O)C2CCCC2)c1 (stereo not given)
75.1% (inactive) | Cc1ccc(C(=O)NCc2cc(C(=O)N(C)C(C)c3ccccn3)no2)cc1 (stereo not given)
82.8% (inactive) | COc1ccc(OCc2cc(C(=O)N(C)C(C)c3ccccn3)no2)cc1 (stereo not given)
79.2% (inactive) | CCOc1cccc(OCc2cc(C(=O)N(C)C(C)c3ccccn3)no2)c1 (stereo not given)
85.3% (inactive) | CC(c1ccccn1)N(C)C(=O)c1cc(COc2ccc(F)c(F)c2)on1 (stereo not given)
75% (inactive) | CC(=O)c1ccc(OCc2cc(C(=O)N(C)C(C)c3ccccn3)no2)cc1 (stereo not given)
80.9% (inactive) | CC(=O)c1cccc(OCc2cc(C(=O)N(C)C(C)c3ccncc3)no2)c1 (stereo not given)
77.8% (inactive) | CC(c1ccccn1)N(C)C(=O)c1cc(CNC(=O)C(C)(C)C)on1 (stereo not given)
77.7% (inactive) | CC(c1ccccn1)N(C)C(=O)c1cc(CNC(=O)C2CCCC2)on1 (stereo not given)
84.1% (inactive) | CC(c1ccccn1)N(C)C(=O)c1cc(COc2cccc(C(F)(F)F)c2)on1 (stereo not given)
79.8% (inactive) | COc1cccc(OCc2cc(C(=O)N(C)C(C)c3ccccn3)no2)c1 (stereo not given)
74.8% (inactive) | CC(=O)c1cccc(N(Cc2cc(C(=O)N(C)C(C)c3ccccn3)no2)C(=O)c2ccccc2F)c1 (stereo not given)
88.7% (inactive) | CC(=O)c1cccc(OCc2cc(C(=O)NCc3ccccn3)no2)c1
77% (inactive) | CC(c1ccccn1)N(C)C(=O)c1cc(CNC(=O)c2ccc(F)cc2)on1 (stereo not given)
70.4% (inactive) | CC(=O)c1cccc(N(Cc2cc(C(=O)N(C)C(C)c3ccccn3)no2)C(C)=O)c1 (stereo not given)

activity remaining | SMILES
21.4% | CC(=O)c1cccc(NCc2cc(C(=O)N(C)C(C)c3ccccn3)no2)c1 (stereo not given)
71.5% (inactive) | Cc1cccc(C(=O)NCc2cc(C(=O)N(C)C(C)c3ccccn3)no2)c1 (stereo not given)
74.2% (inactive) | CC(=O)c1cccc(OCc2cc(C(=O)N(C)c3cccc4cccnc34)no2)c1
76.4% (inactive) | COc1ccccc1C(=O)NCc1cc(C(=O)N(C)C(C)c2ccccn2)no1 (stereo not given)
60.6% (inactive) | CC(=O)c1cccc(N(Cc2cc(C(=O)N(C)C(C)c3ccccn3)no2)S(=O)(=O)c2ccccc2[N+](=O)[O-])c1 (stereo not given)
78.5% (inactive) | Cc1ccc(OCc2cc(C(=O)N(C)C(C)c3ccccn3)no2)cc1 (stereo not given)
65.5% (inactive) | CC(=O)c1cccc(N(Cc2cc(C(=O)N(C)C(C)c3ccccn3)no2)C(=O)c2cccc(C)c2)c1 (stereo not given)
86.8% (inactive) | CC(=O)c1cccc(OCc2cc(C(=O)N3CCc4cccnc4C3)no2)c1
78.2% (inactive) | CC(c1ccccn1)N(C)C(=O)c1cc(CNC(=O)c2cccc(F)c2)on1 (stereo not given)
14.2% | CCN(C(=O)c1cc(COc2cccc(C(C)=O)c2)on1)C(C)c1ccccn1 (stereo not given)
71.8% (inactive) | CC(c1ccccn1)N(C)C(=O)c1cc(CNC(=O)c2ccccc2F)on1 (stereo not given)
70% (inactive) | CC(=O)c1cccc(N(Cc2cc(C(=O)N(C)C(C)c3ccccn3)no2)C(=O)c2cccc(F)c2)c1 (stereo not given)
63.5% (inactive) | CC(=O)c1cccc(N(Cc2cc(C(=O)N(C)C(C)c3ccccn3)no2)C(=O)c2ccc(C)cc2)c1 (stereo not given)
77.1% (inactive) | CC(c1ccccn1)N(C)C(=O)c1cc(COc2cccc(F)c2)on1 (stereo not given)
76.1% (inactive) | CC(Cl)c1cccc(OCc2cc(C(=O)N(C)C(C)c3ccccn3)no2)c1 (stereo not given)
81.5% (inactive) | CC(=O)c1cccc(OCc2cc(C(=O)N3CCc4ccccc4C3C)no2)c1 (stereo not given)
79% (inactive) | CC(c1ccccn1)N(C)C(=O)c1cc(COc2ccc3c(c2)CCCC3)on1 (stereo not given)
